The subject of series [1] is CCl4-induced liver fibrosis in male Sprague–Dawley rats. In words: Therapeutic model treated after induction of CCl4 liver fibrosis. Conditions: for redox status (MDA, GSH, SOD in liver homogenate): oral daily weeks 7-12 after CCl4, compared to Clx. The series is classed as in vivo, rat. As for the experimental part: (§1) Ninety-eight healthy adult Sprague–Dawley male rats with an average weight of 150 ± 20 g were obtained from the animal facility at the Institute of Graduate Studies and Research, Alexandria University, Egypt. Animals were provided with a balanced commercial diet ad libitum and adapted for two weeks prior to the experiment. All animals were sacrificed under IP thiopental anesthesia (50 mg/kg) 48 h after the last treatment.
Blood samples were collected using cardiac puncture in Li-heparin tubes and centrifuged at 2000× g for 10 min to obtain the plasma. Then, the determination of hepatic biomarkers and renal profile was performed according to kits purchased from Roche Diagnostics, USA, using a Roche/Hitachi analyzer (cobas c 311, cobas c 501/502).
Rats were sacrificed by exsanguination following blood sample collection. The livers were excised, rinsed with cold saline, and dried on filter paper. A portion of each excised liver was put in 10% formalin solution, and then embedded in paraffin and sliced into 4–5 µm sections for histological evaluation. Another part of each liver was snap frozen and stored at −80 °C for later analyses of markers. The remaining tissue was stored in RNAlater solution (Qiagen, Germany, Mat. No. 1018087, lot no. 148052467) for qRT-PCR.
Sections from formalin-fixed paraffin-embedded (FFPE) liver tissues were stained with hematoxylin and eosin and Masson trichrome stain to evaluate liver necrosis and fibrosis. The scores of liver fibrosis degree were evaluated according to a 4-tiered scoring system following the criteria: score 0 = absent fibrosis where scanty fibrous tissue is seen only in portal tracts, score 1 = minimal fibrosis (expanded portal tracts with short fibrous septea may be extending from portal tracts), score 2 = mild fibrosis (long fibrous septea is extending from portal tracts with occasional bridging to other portal tracts or to central veins), score 3 = moderate fibrosis (frequent portal to portal or to central vein bridging with infrequent pseudolobule formation), and score 4 = severe fibrosis (nodular liver with evident pseudolobule formation). For collagen morphological quantification, multiple random pictures of the trichrome-stained section were taken using a microscope-adopted camera at ×400 power. The collagen-positive area stained in blue was evaluated using ImageJ software and then calculated as a percentage of the total field area. At least eight fields were assessed and the mean value was then calculated.
Four-micron sections were cut and mounted on positively charged slides. They were stained with smooth muscle actin (SMA) monoclonal primary antibody (Dako, Denmark; CodeIR611, lot no. 41247585) using Dako auto Stainer (autostainer Link 48). A positive control (leiomyoma) was used in each run. Immune-stained slides were assessed, and ten high power fields of each section were photographed using a Leica camera. Photos were analyzed using ImageJ software to record the immune-positive area (seen as brown staining) in each photo. Then, the positively stained area percentage was calculated as a mean of the 10 examined photos for each rat.
Protein content determination was performed according to Bradford using bovine serum albumin as a standard. A volume of 5 μL of each sample and standard was first added to each well then 250 μL of Ready-To-Use Coomassie Blue G-250 Based Reagent (Thermo Scientific, Waltham, MA, USA; Prod no. 23200, lot no. UE285518) was added. The microplate was put on the shaker for 30 s and then incubated for 10 min at RT. Absorbance was read at […] using a microplate reader.
The malondialdehyde (MDA) level was estimated using the thiobarbituric acid method as previously described. Liver glutathione was estimated using a colorimetric kit (Biodiagnostics, Egypt; catalog no. GR 25 11) according to the method of Beutler et al.. […]

A further series has as its target T1, COX-1 (Ovis aries, UniProt P05979).
T1 construct: purchased Cayman Chemicals, Ann Arbor, MI, USA 560131
T1 sequence (P05979 25-600): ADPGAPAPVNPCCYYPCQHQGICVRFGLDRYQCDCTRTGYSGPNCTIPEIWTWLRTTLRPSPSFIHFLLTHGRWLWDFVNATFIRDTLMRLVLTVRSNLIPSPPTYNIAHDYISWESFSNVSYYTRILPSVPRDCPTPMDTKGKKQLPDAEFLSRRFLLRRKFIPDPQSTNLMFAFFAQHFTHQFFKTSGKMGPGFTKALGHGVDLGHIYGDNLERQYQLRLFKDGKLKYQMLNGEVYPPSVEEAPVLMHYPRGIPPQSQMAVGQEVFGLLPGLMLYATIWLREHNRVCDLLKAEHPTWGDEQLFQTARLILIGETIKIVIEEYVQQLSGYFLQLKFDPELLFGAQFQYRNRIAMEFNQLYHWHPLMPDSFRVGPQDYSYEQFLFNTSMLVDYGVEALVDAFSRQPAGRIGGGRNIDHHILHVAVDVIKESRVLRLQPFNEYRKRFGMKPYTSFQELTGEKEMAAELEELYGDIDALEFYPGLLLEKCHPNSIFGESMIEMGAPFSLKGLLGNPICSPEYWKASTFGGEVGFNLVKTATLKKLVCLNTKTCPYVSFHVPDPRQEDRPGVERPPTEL
Description: In vitro COX-1 inhibition assay (Cayman colorimetric COX (ovine) inhibitor screening kit). The format is biochemical. Conditions: mean ± SEM, n = 3.

Series [2] concerns healthy adult Sprague–Dawley male rats. In words: In vivo toxicity study, 6 weeks oral daily. The arrangement: species or system rat. Conditions: plasma, oral daily 6 weeks, dose equimolar to celecoxib 20 mg/kg; mean ± SEM, n = 6. The protocol:
as §1
Blood samples were collected using cardiac puncture in Li-heparin tubes and centrifuged at 2000× g for 10 min to obtain the plasma. Then, the determination of hepatic biomarkers and renal profile was performed according to kits purchased from Roche Diagnostics, USA, using a Roche/Hitachi analyzer (cobas c 311, cobas c 501/502). […]

The subject of series [3] is hepatocellular carcinoma cell line (HepG2). In words: Cytotoxicity MTT assay. The format is cell-based. Particulars: human, 24 h. The protocol: (§2) MTT assay was used to estimate cell viability potential for 24 h using hepatocellular carcinoma cell line (HepG2) as previously reported. Calculation of the relative cell viability percentage was performed following the equation: % Relative cell viability = (Absorbance of treated samples/Absorbance of untreated sample) × 100.

The next series can be described thus: Cytotoxicity MTT assay. Particulars: human, HepG2 cells (hepatocellular carcinoma cell line), HepG2, MTT, mean ± SEM, n = 3. The series is classed as cell-based. The protocol: as §2
Series [4] deals with induced liver fibrosis. Conditions: cited from earlier work.
For series [5], the system named is induced liver fibrosis. Conditions: injected subcutaneously 3.6 µL/day, mice models; cited from earlier work.
The mark [6] stands for this setting: liver tissue homogenate, after CCl4.

Like-named read-outs stand apart in the source and are kept apart here.

On to `COc1cc(/C=N/Nc2ncnc3c2cnn3-c2ccccc2)cc(OC)c1OC` [Compound D3], for which, in series [1] (setting [6]), the “MDA level compared to Clx” value was “significantly better that Clx”, the “SOD compared to Clx” value was “equal to it” and the “reduced GSH compared to Clx” value was “worse”. At COX-1, the IC50 turned out to be 11.5 ± 0.05 µM. In series [2], the ALP is 123.16 ± 4.12 U/L, the ALT is given as 37.83 ± 2.45 U/L, the AST is listed as 147.33 ± 9.81 U/L and the Albumin is 3.86 ± 0.12 g/dL. In addition, in series [2], the Cholesterol was determined as 62.33 ± 1.68 mg/dL, the Creatinine stood at 0.42 ± 0.02 mg/dL, the “Total Bilirubin” value came to 0.076 ± 0.006 mg/dL and the Triglycerides was 64 ± 8.01 mg/dL. Besides, the “Safety Index (SI)” value in series [3] is on record as 4042.7. The IC50 at 24 h in “Cytotoxicity MTT assay” came out at 356.5 ± 2.9 µM.

`COc1ccc(/C=N/Nc2ncnc3c2cnn3-c2ccccc2)cc1` [Compound D1]: the “redox status (MDA, GSH, SOD in liver homogenate)” value in series [1] is listed as “no significance difference to Clx treatment”. At COX-1, this compound registered an IC50 of 7.5 ± 0.09 µM. In series [2], this compound returned an ALP of 159.5 ± 7.48 U/L, an ALT of 49.66 ± 4.99 U/L, an AST of 139.5 ± 7.78 U/L and an Albumin of 3.9 ± 0.12 g/dL. Besides, in series [2], the Cholesterol is listed as 71.66 ± 7 mg/dL, the Creatinine is on record as 0.36 ± 0.03 mg/dL, the “Total Bilirubin” value is 0.073 ± 0.004 mg/dL and the Triglycerides is reported as 67 ± 5.42 mg/dL. Moreover, the “Safety Index (SI)” value in series [3] is reported as 2745.9. Moreover, the half-inhibitory concentration (IC50) at 24 h in the series “Cytotoxicity MTT assay” stood at 370.7 ± 0.089 µM.

Take `Cc1ccc(-c2cc(C(F)(F)F)nn2-c2ccc(S(N)(=O)=O)cc2)cc1` [Celecoxib, celecoxib, reference compound]: in the series with induced liver fibrosis [4] (15 mg/kg/day orally, rat models), the “effect on induced liver fibrosis” value was “no effect”. For the same compound, in the series on induced liver fibrosis [4] (20 mg/kg/day orally), the “effect on induced liver fibrosis” value is “potentiality in the attenuation of induced liver fibrosis”. The “effect on induced liver fibrosis” value in the series on induced liver fibrosis [5] is on record as “no effect”. In addition, in series [2], the ALP came out at 138.66 ± 13.40 U/L, the ALT was found to be 42 ± 3.33 U/L, the AST is on record as 147.5 ± 18.65 U/L and the Albumin was 3.73 ± 0.06 g/dL. In series [2], the Cholesterol was found to be 52.5 ± 2.21 mg/dL, the Creatinine stood at 0.35 ± 0.01 mg/dL, the “Total Bilirubin” value worked out at 0.084 ± 0.006 mg/dL and the Triglycerides worked out at 53 ± 7.11 mg/dL. For the same compound, in the series “Cytotoxicity MTT assay”, 144.6 ± 1.08 µM corresponded to half-maximal inhibition (IC50 at 24 h).

As to `COc1ccc(/C=N/Nc2ncnc3c2cnn3-c2ccccc2)cc1OC` [Compound D2], in series [1] (after CCl4 and treatment, vs model and control), the “hepatic mRNA expression of MMP-9” value is listed as “more significant reduction, reaching a low MMP-9 level near that of the control group”. Also, the “reduction of TGF-β compared to celecoxib” value in series [1] (hepatic mRNA, after CCl4 and treatment) is “more significant than celecoxib”. The “proinflammatory and profibrogenic cytokines (TNF-α protein, TGF-β and IL-6 gene expression)” value in series [1] (liver, after CCl4 and treatment) is “decreased considerably reaching the control level”. For the same compound, the “severity of fibrosis (architecture, fibrotic score, collagen- and α-SMA-positive areas, α-SMA and COL1A1 mRNA)” value in series [1] (oral daily weeks 7-12 after 6 weeks CCl4, vs model and Clx group) is reported as “best effect”. The “redox status (MDA, GSH, SOD in liver homogenate)” value in series [1] is “best enhancement”. Also, the “restoration of increased plasma ALT and AST” value in series [1] (plasma, after CCl4 and treatment) was “more significant”. Besides, the IC50 at COX-1 is 8.5 ± 0.04 µM. Also, in series [2], the ALP came to 154.16 ± 10.92 U/L, the ALT was 39.66 ± 2.13 U/L, the Albumin amounted to 3.78 ± 0.12 g/dL and the Cholesterol worked out at 67 ± 6.47 mg/dL. In series [2], the Creatinine stood at 0.37 ± 0.01 mg/dL, the “Total Bilirubin” value came out at 0.071 ± 0.01 mg/dL and the Triglycerides is reported as 61.83 ± 7.11 mg/dL. The “Safety Index (SI)” value in series [3] was 3349.0. This compound also yielded an IC50 at 24 h in “Cytotoxicity MTT assay” of 344.95 ± 0.3 µM.
